According to patent publication US20040110821A1, “GAL3 receptor antagonists for the treatment of affective disorders” (priority 2002, published 2004):
Marks after values point to notes of the source that are not given here.

Legend:
[1] = test system: Male albino Sprague-Dawley rats; experiment: Rat Social Interaction Test (SIT); format: in vivo; conditions: for overall profile in the Social Interaction Test (conclusion in words): rat, in vivo
Description: Rats were allowed to acclimate to the animal care facility for 5 days and were housed singly for 5 days prior to testing. Animals were handled for 5 minutes per day. The design and procedure for the Social Interaction Test was carried out as previously described by Kennett, et al. (1997). On the test day, weight matched pairs of rats (±5%), unfamiliar to each other, were given identical treatments and returned to their home cages. Animals were randomly divided into 5 treatment groups, with 5 pairs per group, and were given one of the following i.p. treatments: Example 92 (10, 30 or 100 mg/kg), vehicle (1 ml/kg) or chlordiazepoxide (5 mg/kg). Dosing was 1 hour prior to testing. Rats were subsequently placed in a white perspex test box or arena (54×37×26 cm), whose floor was divided up into 24 equal squares, for 15 minutes. An air conditioner was used to generate background noise and to keep the room at approximately 74° F. All sessions were videotaped using a JVC camcorder (model GR-SZ1, Elmwood Park, N.J.) with either TDK (HG ultimate brand) or Sony 30 minute videocassettes. All sessions were conducted between 1:00-4:30 P.M. Active social interaction, defined as grooming, sniffing, biting, boxing, wrestling, following and crawling over or under, was scored using a stopwatch (Sportsline model no. 226, 1/100 sec. discriminability). The number of episodes of rearing (animal completely raises up its body on its hind limbs), grooming (licking, biting, scratching of body), and face washing (i.e. hands are moved repeatedly over face), and number of squares crossed were scored. Passive social interaction (animals are lying beside or on top of each other) was not scored. All behaviors were assessed later by an observer who was blind as to the treatment of each pair. At the end.of each test, the box was thoroughly wiped with moistened paper towels.
Male albino Sprague-Dawley rats (Taconic Farms, N.Y.) were housed in pairs under a 12 hr light dark cycle (lights on at 0700 hrs.) with free access to food and water.
Example 92 was dissolved in 100% DMSO (Sigma Chemical Co., St. Louis, Mo.). Chlordiazepoxide (purchased from Sigma Chemical Co., St. Louis, Mo.) was dissolved in double distilled water. The vehicle consisted of 50% DMSO (v/v). All drug solutions were made up 10 minutes prior to injection and the solutions were discarded.
Example 34 was dissolved in 5% lactic acid, v/v. The vehicle consisted of 100% dimethylacetamide (DMA) and this was used to make up all drug solutions. All drug solutions were made up fresh each day and any unused solutions were discarded at the end of the test day. The volume of drug solution administered was 1 ml/kg.
The social interaction data (time interacting, rearing and squares crossed) were subjected to a randomized, one-way ANOVA and post hoc tests conducted using the Student-Newman-Keuls test. The data were subjected to a test of normality (Shapiro-Wilk test). The data were analyzed using the GBSTAT program, version 6.5 (Dynamics Microsystems, Inc., Silver Spring, Md., 1997). All data are presented as means ±S.E.M.

Male Sprague-Dawley rats = experiment: Rat Forced Swim Test (FST); format: in vivo; conditions: for overall profile in the Forced Swim Test (conclusion in words): rat, in vivo
human 5HT1A receptor = target: T1, human 5HT1A receptor (Homo sapiens, UniProt P08908); experiment: Radioligand binding at 5-HT1A receptor; conditions: read-out: h5HT1A Ki
T1 construct: expressed in transfected cells; host or cells: COS-7 cells, transient, vector pCEXV-3
T1 sequence (P08908 whole entry): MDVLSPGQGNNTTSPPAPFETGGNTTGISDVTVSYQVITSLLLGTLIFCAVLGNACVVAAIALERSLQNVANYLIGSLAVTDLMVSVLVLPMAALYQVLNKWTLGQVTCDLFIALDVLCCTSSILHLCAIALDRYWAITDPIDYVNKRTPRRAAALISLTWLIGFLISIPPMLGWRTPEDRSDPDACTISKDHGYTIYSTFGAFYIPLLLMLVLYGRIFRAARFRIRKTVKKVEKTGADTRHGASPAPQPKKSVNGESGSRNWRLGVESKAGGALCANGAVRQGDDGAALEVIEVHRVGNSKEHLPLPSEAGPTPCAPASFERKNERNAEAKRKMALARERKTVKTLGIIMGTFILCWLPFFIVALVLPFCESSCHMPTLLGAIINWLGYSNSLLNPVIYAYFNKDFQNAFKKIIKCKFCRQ
Description: 5-HT1r Receptor: The cDNA corresponding to the 5-HT1A receptor open reading frames and variable non-coding 5′- and 3′-regions, was cloned into the eukaryotic expression vector pCEXV-3. These constructs were transfected transiently into COS-7 cells by the DEAE-dextran method (Cullen, 1987), and harvested after 72 hours. Radioligand binding assays were performed as described above for the 5-HT2A receptor, except that ^3H-8-OH-DPAT was used as the radioligand and nonspecific binding was determined by the addition of 10 μM mianserin.
Binding data were analyzed using nonlinear regression and statistical techniques available in the GraphPAD Prism package (San Diego, Calif.). Enzymatic assay data were derived from a standard curve of reference compound data.

[2] = 1 mg/kg i.p., single injection 1 h before 5 min test
[3] = 3 mg/kg i.p., single injection 1 h before 5 min test
[4] = 10 mg/kg i.p., single injection 1 h before 5 min test
[5] = 0.3 mg/kg p.o., single administration 1 hr before 5 min test
[6] = 0.3 mg/kg p.o., single administration 1 hr before 5 min test, listed as EX34
[7] = 1 mg/kg p.o., single administration 1 hr before 5 min test
[8] = 1 mg/kg p.o., single administration 1 hr before 5 min test, listed as EX34
[9] = 3 mg/kg p.o., single administration 1 hr before 5 min test
[10] = 3 mg/kg p.o., single administration 1 hr before 5 min test, listed as EX34
[11] = 10 mg/kg p.o., single administration 1 hr before 5 min test
[12] = 10 mg/kg p.o., single administration 1 hr before 5 min test, listed as EX34

O=C1C(=Nc2cccc(C(F)(F)F)c2)c2ccccc2N1c1ccccc1 [Example 92, 1-PHENYL-3-[[3-(TRIFLUOROMETHYL)PHENYL]IMINO]-1,3-DIHYDRO-2H-INDOL-2-ONE]
ataxia or sedation accompanying decreased locomotor activity ([1]; 100 mg/kg i.p.): did not appear to be accompanied by ataxia or sedation | social interaction of familiar cage mates ([1]; familiar cage mates, another study (not reported)): no significant increase in interaction | stereotypes or aggressive behaviors ([1]; i.p., Social Interaction Test): did not elicit stereotypes or produce aggressive behaviors | overall profile in the Social Interaction Test (conclusion in words) [1]: has the profile of an anxiolytic-like drug in the Social Interaction Test | Diving (Male Sprague-Dawley rats; [2]): 0.6±0.2 counts | Immobility (Male Sprague-Dawley rats; [2]): 28 ± 1.0 counts | Swimming (Male Sprague-Dawley rats; [2]): 20±1.1 counts | Diving (Male Sprague-Dawley rats; [3]): 0.6±0.3 counts | Swimming (Male Sprague-Dawley rats; [3]): 21±0.9 counts | Diving (Male Sprague-Dawley rats; [4]): 0.5±0.5 counts | Swimming (Male Sprague-Dawley rats; [4]): 18±0.9 counts | Diving (Male Sprague-Dawley rats; 30 mg/kg i.p., single injection 1 h before 5 min test): 0.2±0.2 counts | overall profile in the Forced Swim Test (conclusion in words) (Male Sprague-Dawley rats): has antidepressant-like properties | Ki (human 5HT1A receptor): > 50 µM

Cc1ccc(Nc2cc(N3CCCCC3)nc(N3CCN(c4ncccc4C(F)(F)F)CC3)n2)cc1 [Example 34]
overall profile in the Social Interaction Test (conclusion in words) [1]: produces an anxiolytic-like action in the social interaction test | Climbing (Male Sprague-Dawley rats; [5]): 3.3 ± 0.7 counts | Diving (Male Sprague-Dawley rats; [5]): not significantly altered | Immobility (Male Sprague-Dawley rats; [5]): significantly decreased immobility | Swimming (Male Sprague-Dawley rats; [5]): significant increase in swimming behavior | Diving (Male Sprague-Dawley rats; [6]): 0.2 ± 0.1 counts | Immobility (Male Sprague-Dawley rats; [6]): 45 ± 1.5^a counts | Swimming (Male Sprague-Dawley rats; [6]): 11.6 ± 0.9^d counts | Climbing (Male Sprague-Dawley rats; [7]): significant increase in climbing | Diving (Male Sprague-Dawley rats; [7]): not significantly altered | Immobility (Male Sprague-Dawley rats; [7]): significantly decreased immobility | Swimming (Male Sprague-Dawley rats; [7]): significant increase in swimming behavior | Climbing (Male Sprague-Dawley rats; [8]): 5.0 ± 0.8^c counts | Diving (Male Sprague-Dawley rats; [8]): 0.3 ± 0.2 counts | Immobility (Male Sprague-Dawley rats; [8]): 35 ± 1.9^b counts | Swimming (Male Sprague-Dawley rats; [8]): 19.6 ± 1.3^d,e counts | Climbing (Male Sprague-Dawley rats; [9]): 4.3 ± 0.8 counts | Diving (Male Sprague-Dawley rats; [9]): not significantly altered | Immobility (Male Sprague-Dawley rats; [9]): significantly decreased immobility | Swimming (Male Sprague-Dawley rats; [9]): significant increase in swimming behavior | Diving (Male Sprague-Dawley rats; [10]): 0.3 ± 0.3 counts | Immobility (Male Sprague-Dawley rats; [10]): 35 ± 2.0^b counts | Swimming (Male Sprague-Dawley rats; [10]): 20.8 ± 1.3^d,e counts | Climbing (Male Sprague-Dawley rats; [11]): did not significantly alter swimming or climbing | Diving (Male Sprague-Dawley rats; [11]): not significantly altered | Immobility (Male Sprague-Dawley rats; [11]): did not significantly decrease in immobility | Swimming (Male Sprague-Dawley rats; [11]): did not significantly alter swimming or climbing | Climbing (Male Sprague-Dawley rats; [12]): 2.0 ± 0.4 counts | Diving (Male Sprague-Dawley rats; [12]): 0.4 ± 0.3 counts | Immobility (Male Sprague-Dawley rats; [12]): 49 ± 1.4 counts | Swimming (Male Sprague-Dawley rats; [12]): 8.2 ± 1.2 counts | overall profile in the Forced Swim Test (conclusion in words) (Male Sprague-Dawley rats): produces an effect in the FST that resembles that of antidepressants | Ki (human 5HT1A receptor): > 50 µM
